The test system of data set [1] is vaccinia and herpes simplex. The conditions noted are these: in vitro, literature; cited from earlier work.
Data set [2] relates to Varicella zoster virus (VZV). The data set can be described thus: VZV plaque reduction assay in MRC5 cells (without agarose overlay). In kind it is cell-based. The protocol: (§1) Human cytomegalovirus (HCMV) is assayed in monolayers of either MRC5 cells (human embryonic lung) or Detroit 532 cells (human foreskin fibroblasts) in multiwell trays. Activity of compounds is determined in the plaque reduction assay, in which a cell monolayer is infected with a suspension of HCMV, and then overlaid with nutrient agarose in the form of a gel to ensure that there is no spread of virus throughout the culture. A range of concentrations of compound of known molarity was incorporated in the nutrient agarose overlay. Plaque numbers of each concentration are expressed as percentage of the control and dose-response curve is drawn. From this curve the 50% inhibitory concentration (IC50) is estimated. Varicella zoster virus (VZV) is assayed in MRC5 cells by a similar method of that of MCMV with the omission of the agarose overlay.
For orientation: In a plaque reduction assay, fewer plaques than in the control indicate reduced infectivity or spread.

A short description of data set [3]: Cell growth inhibition assay (cell toxicity, tetrazolium dye uptake). Type of data set: cell-based. The following applies: monkey; Vero cells; 50% inhibition of cell viability at 96 hours; read-out: CCID50 at 96 hr. The protocol:
Cell toxicity is assessed in a cell growth inhibition assay. Subconfluent cultures of Vero cells grown on 96-well microtiter dishes are exposed to different dilutions of drug, and cell viability determined daily on replicate cultures using uptake of a tetrazolium dye (MIT). The concentration required for a 50% inhibition of cell viability at 96 hours is termed CCID50.

In data set [4] the test system is Human cytomegalovirus (HCMV). The data set can be described thus: HCMV plaque reduction assay in MRC5 or Detroit 532 cells. Type of data set: cell-based. How it is done: as §1, with “estimated.” for “estimated. Varicella zoster virus (VZV) is assayed in MRC5 cells by a similar method of that of MCMV with the omission of the agarose overlay.”

The term IC50 denotes the concentration needed to halve the response being measured. A lower IC50 goes with higher potency.

Molecules are shown by their SMILES.

As for `C#Cc1cn([C@H]2C[C@H](O)[C@@H](CO)O2)c(=O)[nH]c1=O` [2'-deoxy-5-ethynyluridine], the “antiviral activity against vaccinia and herpes simplex (in words)” value in data set [1] is on record as “did not demonstrate any effect of use in human medicinal chemotherapy”.
For the compound `CC#Cc1cn([C@H]2C[C@H](O)[C@@H](CO)O2)c(=O)[nH]c1=O` [Example 1, 2'-Deoxy-5-propynyluridine], the IC50 was 1 µM in data set [2] (Human alphaherpesvirus 3, MRC5, MRC5 cells, plaque reduction) and > 16 µM in data set [4] (Human betaherpesvirus 5, MRC5, MRC5 or Detroit 532 cells, plaque reduction). Further, the “activity against VZV (in words)” value in data set [2] (qualitative statement) is on record as “potent anti-VZV activity”. The CC50 at 96 h in data set [3] was > 500 µM.
As to `C#Cc1cn([C@H]2C[C@H](OC(C)=O)[C@@H](COC(C)=O)O2)c(=O)nc1N` [Example 2, 2'-Deoxy-3',5'-di-O-acetyl-5-ethynylcytidine], in data set [3], the CC50 at 96 h was > 500 µM.
`C#Cc1cn([C@H]2C[C@H](O)[C@@H](CO)O2)c(=O)nc1N` [Example 3, 2'-Deoxy-5-ethynylcytidine]: in data set [4] (qualitative statement), the “activity against CMV (in words)” value is “high activity against CMV”.

Values taken from patent US5028596A, “1-(β-D-arabinofuranosyl)-5-propynyluracil for treatment of VZV infections” (Burroughs Wellcome Co., priority 1987, dated 1991).
